Reference: patent publication US20260325533A1, “CDK INHIBITOR COMPOUNDS” (ALEKSIA THERAPEUTICS, INC., priority 2023, published 2026)
Read-outs that look alike come from different tables or passages of the source.

Legend:
Format in all cases: biochemical
CDK2/CCNE1 = CDK2/CCNE1 (Homo sapiens, UniProt P24941); assay: CDK2 homogeneous time-resolved fluorescence (HTRF) kinase assay; settings: CDK2/CCNE
Procedure, shortened: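 An HTRF format measures CDK2/CCNE1 (3 nM) phosphorylating a 4E-BP1 Thr37/46 peptide at high (1 mM) ATP. Reactions run one hour at 23 °C, then EDTA-quenched and probed with Eu-labelled phospho-specific antibody.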

CDK6/CCND1 = CDK6/CCND1 (Homo sapiens, UniProt Q00534); assay: CDK6 homogeneous time-resolved fluorescence (HTRF) kinase assay; settings: CDK6/CCND
Procedure, shortened: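 Recombinant CDK6/CCND1 (1 nM final) was preincubated with compound for 20 min at 23 °C in HEPES buffer with MgCl2, EGTA, DTT and Tween 20. Kinase reaction then ran 60 min at 23 °C with 1 mM ATP and 50 nM ULight-4E-BP1 (Thr37/46) peptide, and was stopped with EDTA.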

CDK4/CCND3 = CDK4/CCND3 (Homo sapiens, UniProt P11802); assay: CDK4 homogeneous time-resolved fluorescence (HTRF) kinase assay; settings: CDK4/CCND
Procedure, shortened: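 HTRF kinase assay, CDK4/CCND3 1.5 nM, ATP 1 mM, ULight-4E-BP1 peptide 50 nM, 23 °C, 60 min reaction after 20 min preincubation. Eu-anti-pThr37/46 antibody detection. 11-pt half-log curves from 10 μM → IC50.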

CDK1/CCNB1 = CDK1/CCNB1 (Homo sapiens, UniProt P06493); assay: CDK1 homogeneous time-resolved fluorescence (HTRF) kinase assay; settings: CDK1/CCNB; x = IC50 >250 nM; read-out: CDK1/CCNB IC50 (>250 nM column)
Procedure, shortened: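 0.5 nM CDK1/CCNB1 was preincubated 20 min at 23 °C with compound in HEPES pH-unspecified buffer (MgCl2, EGTA, DTT, Tween 20), then reacted 60 min with 1 mM ATP and 50 nM ULight-4E-BP1 (Thr37/46) peptide. EDTA-stopped reactions were detected with 2 nM Eu-anti-phospho antibody; IC50 from 11-point half-log titrations.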

[1] = x = IC50 25-250 nM, read-out: CDK2/CCNE IC50 (25-250 nM)
[2] = x = IC50 >250 nM, read-out: CDK6/CCND IC50 (>250 nM column)
[3] = x = IC50 >250 nM, read-out: CDK4/CCND IC50 (>250 nM column)
[4] = x = IC50 >250 nM, read-out: CDK2/CCNE IC50 (>250 nM column)
[5] = x = IC50 <25 nM, read-out: CDK2/CCNE IC50 (<25 nM)
[6] = x = IC50 25-250 nM, read-out: CDK6/CCND IC50 (25-250 nM)

CDK4/CCND3, sequence (P11802 whole entry): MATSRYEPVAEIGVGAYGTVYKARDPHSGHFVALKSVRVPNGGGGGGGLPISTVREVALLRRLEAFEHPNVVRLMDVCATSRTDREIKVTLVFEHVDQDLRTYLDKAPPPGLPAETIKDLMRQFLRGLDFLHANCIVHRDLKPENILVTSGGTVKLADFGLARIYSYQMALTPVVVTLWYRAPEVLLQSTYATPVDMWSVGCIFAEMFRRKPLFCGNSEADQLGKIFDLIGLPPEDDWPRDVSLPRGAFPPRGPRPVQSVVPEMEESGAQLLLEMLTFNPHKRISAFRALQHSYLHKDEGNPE
CDK4/CCND3, sequence (P30281 whole entry partner): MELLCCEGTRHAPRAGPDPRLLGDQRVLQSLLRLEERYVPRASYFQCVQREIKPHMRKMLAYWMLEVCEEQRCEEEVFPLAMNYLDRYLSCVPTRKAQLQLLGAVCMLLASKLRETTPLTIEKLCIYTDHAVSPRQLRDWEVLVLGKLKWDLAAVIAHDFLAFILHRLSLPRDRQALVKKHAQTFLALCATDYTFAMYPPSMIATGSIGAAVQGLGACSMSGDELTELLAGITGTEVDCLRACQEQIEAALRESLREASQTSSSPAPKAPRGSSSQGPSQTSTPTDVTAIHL
CDK6/CCND1, sequence (Q00534 whole entry): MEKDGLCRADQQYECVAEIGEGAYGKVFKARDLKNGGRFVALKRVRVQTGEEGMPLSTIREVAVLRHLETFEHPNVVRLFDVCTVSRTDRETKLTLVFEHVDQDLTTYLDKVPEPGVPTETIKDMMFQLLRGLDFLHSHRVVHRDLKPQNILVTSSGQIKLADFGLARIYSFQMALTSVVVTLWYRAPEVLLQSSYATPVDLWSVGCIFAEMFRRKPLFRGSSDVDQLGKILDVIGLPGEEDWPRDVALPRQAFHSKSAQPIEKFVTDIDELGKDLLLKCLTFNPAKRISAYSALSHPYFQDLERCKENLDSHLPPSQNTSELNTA
CDK6/CCND1, sequence (P24385 whole entry partner): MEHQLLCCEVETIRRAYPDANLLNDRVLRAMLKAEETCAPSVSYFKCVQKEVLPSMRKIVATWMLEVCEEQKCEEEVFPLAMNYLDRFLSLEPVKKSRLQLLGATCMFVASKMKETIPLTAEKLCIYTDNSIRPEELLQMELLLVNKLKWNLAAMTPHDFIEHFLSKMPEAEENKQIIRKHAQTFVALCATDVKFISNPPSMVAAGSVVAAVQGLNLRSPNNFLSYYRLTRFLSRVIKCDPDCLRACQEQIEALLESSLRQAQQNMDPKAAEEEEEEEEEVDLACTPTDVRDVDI
CDK1/CCNB1, sequence (P06493 whole entry): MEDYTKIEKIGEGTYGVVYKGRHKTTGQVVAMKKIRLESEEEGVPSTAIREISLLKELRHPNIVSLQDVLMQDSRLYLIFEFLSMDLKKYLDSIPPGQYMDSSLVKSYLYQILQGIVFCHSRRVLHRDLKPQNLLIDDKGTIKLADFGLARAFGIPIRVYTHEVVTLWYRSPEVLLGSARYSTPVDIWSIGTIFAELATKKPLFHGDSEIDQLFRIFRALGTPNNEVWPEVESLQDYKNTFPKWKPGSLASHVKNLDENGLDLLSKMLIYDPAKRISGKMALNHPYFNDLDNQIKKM
CDK1/CCNB1, sequence (P14635 whole entry partner): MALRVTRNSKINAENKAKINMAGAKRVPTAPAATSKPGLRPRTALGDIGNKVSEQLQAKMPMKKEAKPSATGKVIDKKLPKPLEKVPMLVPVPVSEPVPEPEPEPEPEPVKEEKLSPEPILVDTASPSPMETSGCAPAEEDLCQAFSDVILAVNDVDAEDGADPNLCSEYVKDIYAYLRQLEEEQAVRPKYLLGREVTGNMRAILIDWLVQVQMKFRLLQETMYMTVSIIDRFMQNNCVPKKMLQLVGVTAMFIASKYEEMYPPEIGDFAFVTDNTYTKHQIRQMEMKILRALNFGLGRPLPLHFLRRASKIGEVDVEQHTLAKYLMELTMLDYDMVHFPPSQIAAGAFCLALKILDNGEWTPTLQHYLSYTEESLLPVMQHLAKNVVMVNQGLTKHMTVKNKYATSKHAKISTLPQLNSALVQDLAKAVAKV

SMILES	IC50 (CDK2/CCNE1; [1])	IC50 (CDK6/CCND1; [2])	IC50 (CDK4/CCND3; [3])	IC50 (CDK1/CCNB1)	IC50 (CDK2/CCNE1; [4])	IC50 (CDK2/CCNE1; [5])	IC50 (CDK6/CCND1; [6])	IC50 (CDK4/CCND3; x = IC50 25-250 nM, read-out: CDK4/CCND IC50 (25-250 nM))
Cc1cc(C#Cc2nccc3cnc(Nc4ccc(S(C)(=O)=O)cc4)cc23)n[nH]1 [Ex 582, 5-((5-methyl-1H-pyrazol-3-yl)ethynyl)-N-(4-(methylsulfonyl)phenyl)-2,6-naphthyridin-3-amine]	25 to 250 nM	> 250 nM	> 250 nM	> 250 nM				
CS(=O)(=O)c1ccc(Nc2cc3c(C#Cc4cccnc4O)nccc3cn2)cc1 [Ex 583, 3-((7-((4-(methylsulfonyl)phenyl)amino)-2,6-naphthyridin-1-yl)ethynyl)pyridin-2(1H)-one]	25 to 250 nM	> 250 nM	> 250 nM	> 250 nM				
CS(=O)(=O)c1ccc(Nc2cc3c(C#Cc4ccc(N)nc4)nccc3cn2)cc1 [Ex 584, 5-((6-aminopyridin-3-yl)ethynyl)-N-(4-(methylsulfonyl)phenyl)-2,6-naphthyridin-3-amine]	25 to 250 nM	> 250 nM	> 250 nM	> 250 nM				
COc1cncc(C#Cc2nccc3cnc(Nc4ccc(S(C)(=O)=O)cc4)cc23)n1 [Ex 585, 5-((6-methoxypyrazin-2-yl)ethynyl)-N-(4-(methylsulfonyl)phenyl)-2,6-naphthyridin-3-amine]	25 to 250 nM	> 250 nM	> 250 nM	> 250 nM				
COc1cc(C#Cc2nccc3cnc(Nc4ccc(S(C)(=O)=O)cc4)cc23)c(F)cn1 [Ex 586, 5-((5-fluoro-2-methoxypyridin-4-yl)ethynyl)-N-(4-(methylsulfonyl)phenyl)-2,6-naphthyridin-3-amine]	25 to 250 nM	> 250 nM	> 250 nM	> 250 nM				
COC(=O)c1nc(C#Cc2nccc3cnc(Nc4ccc(S(C)(=O)=O)cc4)cc23)cnc1N [Ex 588, methyl 3-amino-6-((7-((4-(methylsulfonyl)phenyl)amino)-2,6-naphthyridin-1-yl)ethynyl)pyrazine-2-carboxylate]		> 250 nM	> 250 nM	> 250 nM	> 250 nM			
Cc1ccc(C#Cc2nccc3cnc(Nc4ccc(S(C)(=O)=O)cc4)cc23)cc1C#N [Ex 589, 2-methyl-5-((7-((4-(methylsulfonyl)phenyl)amino)-2,6-naphthyridin-1-yl)ethynyl)benzonitrile]		> 250 nM	> 250 nM	> 250 nM	> 250 nM			
CC(C)(O)c1ccc(C#Cc2nccc3cnc(Nc4ccc(S(C)(=O)=O)cc4)cc23)cc1 [Ex 596, 2-(4-((7-((4-(methylsulfonyl)phenyl)amino)-2,6-naphthyridin-1-yl)ethynyl)phenyl)propan-2-ol]	25 to 250 nM	> 250 nM	> 250 nM	> 250 nM				
Cc1cc2[nH]ncc2cc1-c1nccc2cnc(Nc3ccc(S(C)(=O)=O)cc3)cc12 [Ex 597, 5-(6-methyl-1H-indazol-5-yl)-N-(4-(methylsulfonyl)phenyl)-2,6-naphthyridin-3-amine]	25 to 250 nM	> 250 nM	> 250 nM	> 250 nM				
CS(=O)(=O)c1ccc(Nc2cc3c(C#Cc4cccnc4N)nccc3cn2)cc1 [Ex 598, 5-((2-aminopyridin-3-yl)ethynyl)-N-(4-(methylsulfonyl)phenyl)-2,6-naphthyridin-3-amine]		> 250 nM	> 250 nM	> 250 nM		< 25 nM		
CS(=O)(=O)c1ccc(Nc2cc3c(-c4ccc5c(c4)C(=O)C(=O)N5)nccc3cn2)cc1 [Ex 600, 5-(7-((4-(methylsulfonyl)phenyl)amino)-2,6-naphthyridin-1-yl)indoline-2,3-dione]			> 250 nM	> 250 nM		< 25 nM	25 to 250 nM	

Continued, values first:

IC50 (CDK2/CCNE1; [1])	IC50 (CDK6/CCND1; [2])	IC50 (CDK4/CCND3; [3])	IC50 (CDK1/CCNB1)	IC50 (CDK2/CCNE1; [4])	IC50 (CDK2/CCNE1; [5])	IC50 (CDK6/CCND1; [6])	IC50 (CDK4/CCND3; x = IC50 25-250 nM, read-out: CDK4/CCND IC50 (25-250 nM))	SMILES
25 to 250 nM	> 250 nM	> 250 nM	> 250 nM					CS(=O)(=O)c1ccc(Nc2cc3c(-c4ccc5[nH]ncc5c4)nccc3cn2)cc1 [Ex 601, 5-(1H-indazol-5-yl)-N-(4-(methylsulfonyl)phenyl)-2,6-naphthyridin-3-amine]
	> 250 nM	> 250 nM	> 250 nM		< 25 nM			CS(=O)(=O)c1ccc(Nc2cc3c(C#Cc4ccc(O)cc4F)nccc3cn2)cc1 [Ex 602, 3-fluoro-4-((7-((4-(methylsulfonyl)phenyl)amino)-2,6-naphthyridin-1-yl)ethynyl)phenol]
25 to 250 nM	> 250 nM	> 250 nM	> 250 nM					CS(=O)(=O)c1ccc(Nc2cc3c(C#Cc4ccc5ncoc5c4)nccc3cn2)cc1 [Ex 604, 5-(benzo[d]oxazol-6-ylethynyl)-N-(4-(methylsulfonyl)phenyl)-2,6-naphthyridin-3-amine]
		> 250 nM	> 250 nM		< 25 nM	25 to 250 nM		COC(=O)c1n[nH]c2cc(-c3nccc4cnc(Nc5ccc(S(C)(=O)=O)cc5)cc34)ccc12 [Ex 605, methyl 6-(7-((4-(methylsulfonyl)phenyl)amino)-2,6-naphthyridin-1-yl)-1H-indazole-3-carboxylate]
	> 250 nM	> 250 nM	> 250 nM		< 25 nM			CS(=O)(=O)c1ccc(Nc2cc3c(C#CC4CCN(CC(=O)O)CC4)nccc3cn2)cc1 [Ex 609, 2-(4-((7-((4-(methylsulfonyl)phenyl)amino)-2,6-naphthyridin-1-yl)ethynyl)piperidin-1-yl)acetic acid]
25 to 250 nM	> 250 nM	> 250 nM	> 250 nM					Cc1c(-c2nccc3cnc(Nc4ccc(S(C)(=O)=O)cc4)cc23)ccc2c1cnn2C(C)(C)C(N)=O [Ex 610, 2-methyl-2-(4-methyl-5-(7-((4-(methylsulfonyl)phenyl)amino)-2,6-naphthyridin-1-yl)-1H-indazol-1-yl)propanamide]
25 to 250 nM	> 250 nM	> 250 nM	> 250 nM					CS(=O)(=O)c1ccc(Nc2cc3c(C#Cc4cncc5[nH]ncc45)nccc3cn2)cc1 [Ex 611, 5-((1H-pyrazolo[3,4-c]pyridin-4-yl)ethynyl)-N-(4-(methylsulfonyl)phenyl)-2,6-naphthyridin-3-amine]
25 to 250 nM	> 250 nM	> 250 nM	> 250 nM					CS(=O)(=O)c1ccc(Nc2cc3c(C#Cc4cc(Cl)n[nH]c4=O)nccc3cn2)cc1 [Ex 612, 6-chloro-4-((7-((4-(methylsulfonyl)phenyl)amino)-2,6-naphthyridin-1-yl)ethynyl)pyridazin-3(2H)-one]
25 to 250 nM	> 250 nM	> 250 nM	> 250 nM					CS(=O)(=O)c1ccc(Nc2cc3c(C#Cc4cnc(N)nn4)nccc3cn2)cc1 [Ex 613, 5-((3-amino-1,2,4-triazin-6-yl)ethynyl)-N-(4-(methylsulfonyl)phenyl)-2,6-naphthyridin-3-amine]
			> 250 nM		< 25 nM	25 to 250 nM	25 to 250 nM	Cc1c(-c2nccc3cnc(Nc4ccc(S(C)(=O)=O)c(O)c4)cc23)ccc2c1cnn2CCO [Ex 616, 5-((5-(1-(2-hydroxyethyl)-4-methyl-1H-indazol-5-yl)-2,6-naphthyridin-3-yl)amino)-2-(methylsulfonyl)phenol]
25 to 250 nM	> 250 nM	> 250 nM	> 250 nM					COc1cc(Nc2cc3c(-c4ccc5c(cnn5CCO)c4C)nccc3cn2)ccc1S(C)(=O)=O [Ex 617, 2-(5-(7-((3-methoxy-4-(methylsulfonyl)phenyl)amino)-2,6-naphthyridin-1-yl)-4-methyl-1H-indazol-1-yl)ethan-1-ol]
	> 250 nM	> 250 nM	> 250 nM		< 25 nM			CS(=O)(=O)c1ccc(Nc2cc3c(C#Cc4ccc(=O)[nH]n4)nccc3cn2)cc1 [Ex 618, 6-((7-((4-(methylsulfonyl)phenyl)amino)-2,6-naphthyridin-1-yl)ethynyl)pyridazin-3(2H)-one]
25 to 250 nM	> 250 nM	> 250 nM	> 250 nM					CS(=O)(=O)c1ccc(Nc2cc3c(C#Cc4ccc(CC#N)cc4)nccc3cn2)cc1 [Ex 620, 2-(4-((7-((4-(methylsulfonyl)phenyl)amino)-2,6-naphthyridin-1-yl)ethynyl)phenyl)acetonitrile]
